Measurements reported in patent publication US5348952A, “β-lactam derivatives of the cephem sulphone type” (Farmitalia Carlo Erba S.R.L., priority 1989, dated 1994).
Where two headings read alike, the source gives them in different places.

Experiments:
[1] = molecular target: porcine pancreatic elastase, PPE (Sus scrofa, UniProt P00772); experiment: Inhibition of PPE activity (Protocol A); assay type: biochemical; conditions: 30° C., 0.05M pH 7.4 phosphate buffer, 2.5% MeCN; 50% reduction of enzyme activity 6.4 minutes after zero time; read-out: PPE-inhibitory activity IC50 (converted)
porcine pancreatic elastase, PPE, sequence (P00772 27-266): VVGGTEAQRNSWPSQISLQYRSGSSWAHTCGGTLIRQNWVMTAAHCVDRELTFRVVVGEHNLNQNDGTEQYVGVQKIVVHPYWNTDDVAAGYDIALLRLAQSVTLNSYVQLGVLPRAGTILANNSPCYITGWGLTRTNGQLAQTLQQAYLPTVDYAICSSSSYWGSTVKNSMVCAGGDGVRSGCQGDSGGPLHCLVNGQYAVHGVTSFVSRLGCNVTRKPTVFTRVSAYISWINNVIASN
Description: To illustrate this point, Table 1 reports the results of our preliminary screening test (carried out with porcine pancreatic elastase, PPE), wherein four representative compounds of the present invention (formula I) are compared with the corresponding 2-unsubstitued compounds of formula II (References A and B).
Protocol A--Inhibition of PPE activity was determined at 30° C., 0.05M pH 7.4 phosphate buffer, 2.5% MeCN, by monitoring the release of p-nitroaniline (410 nm, Carlo Erba Strumentazione Spectracomp spectrophotometer) from the substrate (N-t-Boc-alanyl-alanyl-prolyl-alanine-p-nitroanilide, 0.2 mM initial concentration).

[2] = molecular target: T1, human leukocyte elastase (HLE) (Homo sapiens, UniProt P08246); experiment: Inhibition of HLE activity, kinetic parameters (Protocol B); assay type: biochemical; conditions: for Ki: steady state, read-out: "Potency" K1^ (apparent dissociation constant of the HLE-inhibitor complex at steady state, Ki^ss)
T1 construct: purchased Calbiochem Lot 702038
T1 sequence (P08246 30-267): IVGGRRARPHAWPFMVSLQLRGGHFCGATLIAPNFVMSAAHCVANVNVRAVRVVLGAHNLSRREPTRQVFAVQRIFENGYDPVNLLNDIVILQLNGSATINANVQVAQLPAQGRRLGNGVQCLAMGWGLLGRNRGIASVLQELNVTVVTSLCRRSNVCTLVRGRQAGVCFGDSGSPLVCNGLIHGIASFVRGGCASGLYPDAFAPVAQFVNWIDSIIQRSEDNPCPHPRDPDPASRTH
Description: Protocol B--Inhibition of HLE activity (Calbiochem, Lot 702038) was determined at 37° C., 0.027M pH 7.4 phosphate buffer, 1% DMSO, 1% MeCN, NaCl (I=15), by monitoring the release of 7-amino-4-methylcoumarin (fluorescence detection) from N-methoxysuccinyl-alanyl-prolyl-valyl-7-amido-4-methylcoumarin as substrate, according to the equations: [formula] wherein: [P], [I], [S]=product, inhibitor and substrate concentration
km =Michaelis constant for the enzyme-substrate pair (independently determined under the same experimental conditions).

[3] = 37° C., 0.027M pH 7.4 phosphate buffer, 1% DMSO, 1% MeCN, read-out: "Efficacy" Kon (rate of formation of the HLE-inhibitor complex)
[4] = 37° C., 0.027M pH 7.4 phosphate buffer, 1% DMSO, 1% MeCN

Compound	IC50 [1] [nM]	kon [2, 3] [M⁻¹ s⁻¹]	Ki [2, 4] [nM]	kon ([2]; pH 7.4, read-out: "Efficacy" Kon (rate of formation of the HLE-inhibitor complex)) [M⁻¹ s⁻¹]
COC(=O)C1=C(C)C(Sc2nnnn2C)S(=O)(=O)[C@@H]2[C@@H](OC)C(=O)N12 (some centres unmarked) [Reference D, reference compound]	12800	500	38	–
CC1=C(C(=O)C(C)(C)C)N2C(=O)[C@H](Cl)[C@H]2S(=O)(=O)C1Sc1nc(=O)c(O)nn1C (stereo partly drawn) [n° 5, 4-tert-butylcarbonyl-7α-chloro-3-methyl-2-(2-methyl-5-oxo-6-hydroxy-2,3-dihydro-1,2,4-triazin-3-yl)-thio-3-cephem 1,1-dioxide]	75.6	–	–	–
CO[C@H]1C(=O)N2C(C(=O)C(C)(C)C)=C(C)C(Sc3nc(=O)c(O)nn3C)S(=O)(=O)[C@H]12 (stereo partly drawn) [n° 9, 4-tert-Butylcarbonyl-7α-methoxy-3-methyl-2-(2-methyl-5-oxo-6-hydroxy-2,5-dihydro-1,2,4-triazin-3-yl)thio-3-cephem 1,1-dioxide]	65.4	25000	26	–
CO[C@H]1C(=O)N2C(C(=O)C(C)(C)C)=C(C)CS(=O)(=O)[C@H]12 [Reference B, reference compound]	6640	–	–	–
CO[C@H]1C(=O)N2C(C(=O)C(C)(C)C)=C(C)C(Sc3nnnn3C)S(=O)(=O)[C@H]12 (stereo partly drawn) [n° 1, 4-tert-Butylcarbonyl-7α-methoxy-3-methyl-2-(1-methyl-1,2,3,4-tetrazol-5-yl)thio-3-cephem 1,1-dioxide]	96.3	90000	8.3	–
CC1=C(C(=O)C(C)(C)C)N2C(=O)[C@H](Cl)[C@H]2S(=O)(=O)C1 [Reference A, reference compound]	6540	–	–	–
CC1=C(C(=O)OC(C)(C)C)N2C(=O)[C@H](Cl)[C@H]2S(=O)(=O)C1Sc1nc2ccccc2s1 (some centres unmarked) [Reference C, reference compound]	4110	–	–	–
CO[C@H]1C(=O)N2C(C(=O)N3CCCC3)=C(CSc3nc(=O)c(O)nn3C)CS(=O)(=O)[C@H]12 [Merck L-659,286, reference compound]	–	–	–	1500
CC1=C(C(=O)C(C)(C)C)N2C(=O)[C@H](Cl)[C@H]2S(=O)(=O)C1Sc1nc(=O)c(OC(c2ccccc2)c2ccccc2)nn1C (stereo partly drawn) [n° 4, 4-Tert-butylcarbonyl-7α-chloro-3-methyl-2-(2-methyl-5-oxo-6-benzhydryloxy-2,5-dihydro 1,2,4-triazin-3-yl-)thio-3-cephem 1,1-dioxide]	71.5	–	–	–
CO[C@H]1C(=O)N2C(C(=O)C(C)(C)C)=C(C)C(Sc3nnnn3CCCC(=O)O)S(=O)(=O)[C@H]12 (stereo partly drawn) [n° 7, 4-tert-Butylcarbonyl-7α-methoxy-3-methyl-2-[1-(3-carboxy-1-propyl)-1,2,3,4-tetrazol-5-yl]thio-3-cephem 1,1-dioxide]	–	11000	18	–
